From patent US8575091B1, “Amylin analogues and pharmaceutical compositions thereof” (Novo Nordisk A/S, priority 2012, dated 2013) come the findings set out here.

Where two headings read alike, the source gives them in different places. Numbered stars: 1 amine (or outer) side, 2 acyl side, 3 side chain; on linkers, the order of the positions; unused ones are H or OH. Bridge positions count the residues as written; N and C are the ends. Side chains are listed from the residue outwards. Peptide text beside a SMILES is read from it. * marks the point of attachment. C20 diacid = O=C(O)CCCCCCCCCCCCCCCCCCC(=O)*; γGlu = O=C(O)[C@H](CCC(=O)[*:2])N[*:1]; AEEA = NCCOCCOCC(=O)O

In assay [1] the target is T1, human amylin receptor (amylin 3(a) receptor: human calcitonin receptor + RAMP-3) (Homo sapiens, UniProt O60896+P30988).
T1 construct: expressed in transfected cells
T1 sequence (P30988 25-474): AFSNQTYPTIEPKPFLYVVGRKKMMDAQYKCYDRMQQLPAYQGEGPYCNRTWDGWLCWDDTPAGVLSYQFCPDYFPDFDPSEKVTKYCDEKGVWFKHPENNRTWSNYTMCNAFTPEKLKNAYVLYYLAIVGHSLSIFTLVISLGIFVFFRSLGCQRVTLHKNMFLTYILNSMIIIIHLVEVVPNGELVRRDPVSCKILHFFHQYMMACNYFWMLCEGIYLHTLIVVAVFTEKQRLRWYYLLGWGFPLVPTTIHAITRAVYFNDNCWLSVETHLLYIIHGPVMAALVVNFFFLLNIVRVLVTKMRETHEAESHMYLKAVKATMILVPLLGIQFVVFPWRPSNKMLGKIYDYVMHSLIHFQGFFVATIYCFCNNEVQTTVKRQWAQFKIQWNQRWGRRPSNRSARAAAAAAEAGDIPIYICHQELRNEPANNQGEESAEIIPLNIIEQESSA
T1 sequence (O60896 24-148 partner): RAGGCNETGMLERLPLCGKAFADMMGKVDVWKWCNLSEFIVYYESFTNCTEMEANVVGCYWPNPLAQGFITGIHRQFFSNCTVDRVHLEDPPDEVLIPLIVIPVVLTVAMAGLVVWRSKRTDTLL
The experiment in a line: Assay (II)a functional assay, human amylin receptor (CRE luciferase, BHK cells). In kind it is cell-based. Particulars: for EC50: read-out: hAmylin-R funct. EC50.

For another assay, the target named is T2, human amylin receptor (Homo sapiens, UniProt O60896+P30988).
T2 construct: expressed in transfected cells
T2 sequence (P30988 25-474): T1 sequence (P30988 25-474)
T2 sequence (O60896 24-148 partner): T1 sequence (O60896 24-148 partner)
The experiment in a line: Assay (V) binding to the human amylin receptor (SPA, 125I-rat amylin). The settings on record: human amylin receptor membranes, SPA; read-out: hAmylin-R bind IC50. In outline: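 IC50, taken as receptor affinity, came from one-site binding competition analysis of scintillation proximity counts. Amylin 3(a)/CRE-luc cell membranes (35 ng/μL final) were mixed with SPA beads (0.05 mg/well) in 50 mM Hepes pH 7.4 containing CaCl2, MgCl2, 0.1% OA and 0.02% Tween20.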

The target in assay [2] is T3, human calcitonin receptor (Homo sapiens, UniProt P30988).
T3 construct: expressed in transfected cells
T3 sequence (P30988 25-474): T1 sequence (P30988 25-474)
Description: Assay (VII) binding to the human calcitonin receptor (SPA, 125I-Calcitonin).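 Note: cell membranes coupled to SPA beads, competitive displacement read by scintillation counting, IC50 derived from a one-site competition fit as a measure of receptor affinity.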 The settings on record: read-out: hCTR bind IC50.

In assay [3] the target is T3, human calcitonin receptor. The experiment in a line: Assay (II)a functional assay, human calcitonin receptor (CRE luciferase, BHK cells).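 Note: luminescence from a CRE-driven luciferase reporter, read by single photon counting after cells were exposed to test samples for 3 h at 37 °C under 5% CO2.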 In kind it is cell-based. Particulars: read-out: hCTR funct. EC50.
Description: Assay (II)—Functional Assays
Consequently, transcription is activated by promoters containing multiple copies of the cAMP response element (CRE).
The cell line was further transfected with RAMP-3, using standard methods.
After incubation overnight at 37° C. and 5% CO2, the growth medium was replaced by 50 μl/well assay medium (DMEM (without phenol red), Glutamax™, 10% FBS, and 10 mM Hepes, pH 7.4). Further, 50 μl/well of standard or sample in assay buffer were added. After 3 hours incubation at 37° C. and 5% CO2, the assay medium with standard or sample were removed and replaced by 100 μl/well PBS. Further, 100 μl/well LucLite™ was added. The plates were sealed and incubated at room temperature for 30 minutes. Finally, luminescence was measured on a TopCounter (Packard) in SPC (single photon counting) mode.
[4] abbreviates: functional assay, human amylin receptor.
Where [5] appears, read: Table 6, human functional selectivity (hCTR EC50 / hAmylin-R EC50).
Where [6] appears, read: Table 6a, human functional selectivity (hCTR EC50 / hAmylin-R EC50), at least 5.
[7] abbreviates: Table 6j, hCTR funct. EC50 / hAmylin-R funct. EC50.
The mark [8] stands for this setting: Table 6k, hCTR funct. EC50 / hAmylin-R funct. EC50.
Where [9] appears, read: Table 6j, human amylin receptor functional.

Usually EC50 stands for the concentration at which the effect is half-maximal. What is called IC50 is the concentration at which inhibition is half-maximal. Consider `CC[C@H](C)[C@H](NC(=O)[C@H](C)NC(=O)CNC(=O)[C@H](Cc1ccccc1)NC(=O)[C@H](CC(N)=O)NC(=O)[C@@H]1CCCN1C(=O)[C@H](CO)NC(=O)[C@H](CO)NC(=O)[C@H](Cc1c[nH]cn1)NC(=O)[C@H](CCCNC(=N)N)NC(=O)[C@H](CC(C)C)NC(=O)[C@H](Cc1ccccc1)NC(=O)[C@H](CC(N)=O)NC(=O)[C@H](C)NC(=O)[C@H](CC(C)C)NC(=O)[C@H](CCCNC(=N)N)NC(=O)[C@H](CCC(N)=O)NC(=O)[C@@H](NC(=O)[C@H](C)NC(=O)[C@@H]1CSSC[C@H](NC(=O)[C@H](CCCNC(=N)N)NC(=O)CNC(=O)CC[C@H](NC(=O)CCCCCCCCCCCCCCCCCCC(=O)O)C(=O)O)C(=O)N[C@@H](CC(N)=O)C(=O)N[C@@H]([C@@H](C)O)C(=O)N[C@@H](C)C(=O)N[C@@H]([C@@H](C)O)C(=O)N1)[C@@H](C)O)C(=O)N1CCC[C@H]1C(=O)N[C@@H](CO)C(=O)N[C@@H](CO)C(=O)N[C@H](C(=O)N[C@@H](CC(N)=O)C(=O)N[C@H](C(=O)NCC(=O)N[C@@H](CO)C(=O)N[C@@H](CC(N)=O)C(=O)N[C@H](C(=O)N[C@@H](Cc1ccc(O)cc1)C(N)=O)[C@@H](C)O)C(C)C)[C@@H](C)O` [Example 46] ({C20 diacid-γGlu}-GRCNTATCATQRLANFLRHSSPNFGAIPSSTNVGSNTY-NH2; disulfide 3-8), for which the EC50 in assay [1] (setting [4]) amounted to 0.088 nM; in assay [3], 0.899 nM. Besides, the results for the half-inhibitory concentration (IC50) (at human amylin receptor; in assay [2]) were 0.195 nM and 9.53 nM, respectively.
Turning to `CC[C@H](C)[C@H](NC(=O)[C@H](C)NC(=O)CNC(=O)[C@H](Cc1ccccc1)NC(=O)[C@H](CC(N)=O)NC(=O)[C@@H]1CCCN1C(=O)[C@H](CO)NC(=O)[C@H](CO)NC(=O)[C@H](Cc1c[nH]cn1)NC(=O)[C@H](CCCNC(=N)N)NC(=O)[C@H](CC(C)C)NC(=O)[C@H](Cc1ccccc1)NC(=O)[C@H](CC(N)=O)NC(=O)[C@H](C)NC(=O)[C@H](CC(C)C)NC(=O)[C@H](CCCNC(=N)N)NC(=O)[C@H](CCC(N)=O)NC(=O)[C@@H](NC(=O)[C@H](C)NC(=O)[C@@H]1CSSC[C@H](NC(=O)[C@H](CCCNC(=N)N)NC(=O)CNC(=O)CC[C@H](NC(=O)CCCCCCCCCCCCCCCCCCC(=O)O)C(=O)O)C(=O)N[C@@H](CC(N)=O)C(=O)N[C@@H]([C@@H](C)O)C(=O)N[C@@H](C)C(=O)N[C@@H]([C@@H](C)O)C(=O)N1)[C@@H](C)O)C(=O)N1CCC[C@H]1C(=O)N[C@@H](CO)C(=O)N[C@@H](CO)C(=O)N[C@H](C(=O)N[C@@H](CC(N)=O)C(=O)N[C@H](C(=O)NCC(=O)N[C@@H](CO)C(=O)N[C@@H](Cc1c[nH]cn1)C(=O)N[C@H](C(=O)N[C@@H](Cc1ccc(O)cc1)C(N)=O)[C@@H](C)O)C(C)C)[C@@H](C)O` [Example 47] ({C20 diacid-γGlu}-GRCNTATCATQRLANFLRHSSPNFGAIPSSTNVGSHTY-NH2; disulfide 3-8), the “Ratio hCT/hAmylin funct.” value in assay [1] (setting [5]), in assay [1] (setting [6]), in assay [1] (setting [7]) and in assay [1] (setting [8]) was 6.0 throughout. Further, the results for the EC50 in assay [1] (setting [4]) and in assay [3] were 0.222 nM and 1.32 nM, respectively. The half-inhibitory concentration (IC50) at human amylin receptor is 0.344 nM; in assay [2], 15.5 nM.
Turning to `CC[C@H](C)[C@H](NC(=O)[C@H](C)NC(=O)CNC(=O)[C@H](Cc1ccccc1)NC(=O)[C@H](CC(N)=O)NC(=O)[C@@H]1CCCN1C(=O)[C@H](CO)NC(=O)[C@H](CO)NC(=O)[C@H](Cc1c[nH]cn1)NC(=O)[C@H](CCCNC(=N)N)NC(=O)[C@H](CC(C)C)NC(=O)[C@H](Cc1ccccc1)NC(=O)[C@H](CC(N)=O)NC(=O)[C@H](C)NC(=O)[C@H](CC(C)C)NC(=O)[C@H](CCCNC(=N)N)NC(=O)[C@H](CCC(N)=O)NC(=O)[C@@H](NC(=O)[C@H](C)NC(=O)[C@@H]1CSSC[C@H](NC(=O)[C@@H](N)CCCCNC(=O)COCCOCCNC(=O)CC[C@H](NC(=O)CCCCCCCCCCCCCCCCCCC(=O)O)C(=O)O)C(=O)N[C@@H](CC(N)=O)C(=O)N[C@@H]([C@@H](C)O)C(=O)N[C@@H](C)C(=O)N[C@@H]([C@@H](C)O)C(=O)N1)[C@@H](C)O)C(=O)N1CCC[C@H]1C(=O)N[C@@H](CO)C(=O)N[C@@H](CO)C(=O)N[C@H](C(=O)N1CCC[C@H]1C(=O)N[C@H](C(=O)NCC(=O)N[C@@H](CO)C(=O)N[C@@H](CC(N)=O)C(=O)N[C@H](C(=O)N[C@@H](Cc1ccc(O)cc1)C(N)=O)[C@@H](C)O)C(C)C)[C@@H](C)O` [Example 49], the 50% effective concentration (EC50) stood at 0.106 nM in assay [1] (setting [4]) and 2.39 nM in assay [3]. Also, the half-maximal inhibitory concentration (IC50) at human amylin receptor turned out to be 1.19 nM; in assay [2], 12.9 nM.
For `CC[C@H](C)[C@H](NC(=O)[C@H](C)NC(=O)CNC(=O)[C@H](Cc1ccccc1)NC(=O)[C@H](CC(N)=O)NC(=O)[C@@H]1CCCN1C(=O)[C@H](CO)NC(=O)[C@H](CO)NC(=O)[C@H](Cc1c[nH]cn1)NC(=O)[C@H](CCCNC(=N)N)NC(=O)[C@H](CC(C)C)NC(=O)[C@H](Cc1ccccc1)NC(=O)[C@H](CC(N)=O)NC(=O)[C@H](C)NC(=O)[C@H](CC(C)C)NC(=O)[C@H](CCCNC(=N)N)NC(=O)[C@H](CCC(N)=O)NC(=O)[C@@H](NC(=O)[C@H](C)NC(=O)[C@@H]1CSSC[C@H](NC(=O)[C@@H](N)CCCCNC(=O)COCCOCCNC(=O)CC[C@H](NC(=O)CCCCCCCCCCCCCCCCCCC(=O)O)C(=O)O)C(=O)N[C@@H](CC(N)=O)C(=O)N[C@@H]([C@@H](C)O)C(=O)N[C@@H](C)C(=O)N[C@@H]([C@@H](C)O)C(=O)N1)[C@@H](C)O)C(=O)N1CCC[C@H]1C(=O)N1CCC[C@H]1C(=O)N[C@@H](CO)C(=O)N[C@H](C(=O)N1CCC[C@H]1C(=O)N[C@H](C(=O)NCC(=O)N[C@@H](CO)C(=O)N[C@@H](CC(N)=O)C(=O)N[C@H](C(=O)N[C@@H](Cc1ccc(O)cc1)C(N)=O)[C@@H](C)O)C(C)C)[C@@H](C)O` [Example 53] (H-K([AEEA-γGlu-C20 diacid])CNTATCATQRLANFLRHSSPNFGAIPPSTPVGSNTY-NH2; disulfide 2-7), the “Ratio hCT/hAmylin funct.” value in assay [1] (setting [5]), in assay [1] (setting [6]), in assay [1] (setting [7]) and in assay [1] (setting [8]) was 9.8 each time. Besides, the EC50 is 0.064 nM in assay [1] (setting [9]) and 0.625 nM in assay [3]. Also, the IC50 stood at 0.052 nM at human amylin receptor and 5.38 nM in assay [2].
Consider `CC[C@H](C)[C@H](NC(=O)[C@H](C)NC(=O)CNC(=O)[C@H](Cc1ccccc1)NC(=O)[C@H](CC(N)=O)NC(=O)[C@@H]1CCCN1C(=O)[C@H](CO)NC(=O)[C@H](CO)NC(=O)[C@H](Cc1c[nH]cn1)NC(=O)[C@H](CCCNC(=N)N)NC(=O)[C@H](CC(C)C)NC(=O)[C@H](Cc1ccccc1)NC(=O)[C@H](CC(N)=O)NC(=O)[C@H](C)NC(=O)[C@H](CC(C)C)NC(=O)[C@H](CCCNC(=N)N)NC(=O)[C@H](CCC(N)=O)NC(=O)[C@@H](NC(=O)[C@H](C)NC(=O)[C@@H]1CSSC[C@H](NC(=O)[C@@H](N)CCCCNC(=O)COCCOCCNC(=O)CC[C@H](NC(=O)CCCCCCCCCCCCCCCCCCC(=O)O)C(=O)O)C(=O)N[C@@H](CC(N)=O)C(=O)N[C@@H]([C@@H](C)O)C(=O)N[C@@H](C)C(=O)N[C@@H]([C@@H](C)O)C(=O)N1)[C@@H](C)O)C(=O)N1CCC[C@H]1C(=O)N[C@@H](CO)C(=O)N1CCC[C@H]1C(=O)N[C@H](C(=O)N[C@@H](CC(N)=O)C(=O)N[C@H](C(=O)NCC(=O)N1CCC[C@H]1C(=O)N[C@@H](CC(N)=O)C(=O)N[C@H](C(=O)N[C@@H](Cc1ccc(O)cc1)C(N)=O)[C@@H](C)O)C(C)C)[C@@H](C)O` [Example 56] (H-K([AEEA-γGlu-C20 diacid])CNTATCATQRLANFLRHSSPNFGAIPSPTNVGPNTY-NH2; disulfide 2-7), for which the “Ratio hCT/hAmylin funct.” value in assay [1] (setting [5]), in assay [1] (setting [6]), in assay [1] (setting [7]) and in assay [1] (setting [8]) was 5.0 throughout. In addition, the EC50 was 0.102 nM in assay [1] (setting [9]) and 0.506 nM in assay [3]. In addition, the figures for the IC50 (at human amylin receptor; in assay [2]) were 0.049 nM and 2.09 nM, respectively.
